Reference: publication PMC6713216, “Dual-target anti-Alzheimer’s disease agents with both iron ion chelating and monoamine oxidase-B inhibitory activity” (Journal of Enzyme Inhibition and Medicinal Chemistry, 2019)
Read-outs that look alike come from different tables or passages of the source. Marks after values point to notes of the source that are not given here.

Columns and labels:
[1] = Determination of iron(III) affinity (Logβ1, Logβ2, Logβ3) by spectrophotometric titration; assay type: physicochemical; conditions: measured in 0.1 M KCl solution
[2] = Calculation of pFe3+ by HySS software from pKa and logβ values; assay type: physicochemical
Procedure: The values of pFe^3+ were calculated by HySS software according to the results of pKa1, pKa2, logβ1, logβ2, and logβ3 determined by the above methods. The basic parameters were set as follows: FeOH = –2.563, Fe(OH)2 = –6.205, Fe(OH)3 = –15.1, Fe2(OH)2 = –2.843, Fe3(OH)4 = –6.059, Fe(OH)4 = –21.883[23].

[3] = parameters: method as in ref 17 = [17]; 17 Li Z-S , Qiao R-P , Yang Z-J , et al.  . Tetrahedron Asymmetry 2006; 17 : 1056 – 61 .; conditions: cited from earlier work
[4] = Determination of iron(III) affinity (Logβ1, Logβ2, Logβ3) by spectrophotometric titration; assay type: physicochemical; conditions: DMSO:KCl (0.1 M) = 2:3 (V/V), 25 °C
Procedure: (§1) The automatic titration system used in the test consisted of an automatic titrator, a luminescence 759 s UV-Vis spectrophotometer, and a pH Meter (Mettler Toledo InLab Expert PRO/Mettler Toledo InLab Science). All instruments are controlled by a computer program.
(§2) The testing solution (2:3 DMSO/KCl (0.1 M), V/V) was maintained at 25 °C using a TP-3A temperature controller. The cuvette is mounted on a spectrophotometer. The E0 and s of the pH Meter were calibrated by three standard solutions (pH = 6.86, 9.18, 4.00). KCl solution (0.1 M) was used to maintain the ionic strength. For the Fe(III) affinity evaluation, the ratio of compounds to iron ion was kept at 1.1:1 (n/n) when Logβ1 was measured; the ratio of compounds to iron ion was kept at 5:1 (n/n) when Logβ2 and Logβ3 were tested.
A 45 ml KCl (0.1 M) solution was added to the cuvette (50 mm) and the pH value was acidified to 2.1. Then 30 μM DMSO solution of the testing compound and 60 μL acidic solution of FeCl3 (15 mM) were added separately, and the mixture was vigorously stirred. After the absorbance value is stabilised, a certain amount of HCl solution (4 M) was added by the automatic buret to reduce the pH of the solution by 0.1. After the system was equilibrated, the spectral scan was performed once after 20 min. This protocol was repeated until the specified endpoint of the pH value was reached. All data was recorded with the internal Visual Basic program, HypSpec2014 program was utilised for the data analysis.
Similarly, 45 ml KCl (0.1 M) solution was added to the cuvette (50 mm) and the pH value was acidified to 2.1. Then 30 μM DMSO solution of the testing compound and 60 μL acidic solution of FeCl3 (15 mM) were added separately, and the mixture was vigorously stirred. After the absorbance value is stabilised, a certain amount of KOH solution (0.1 M) was added by the automatic buret to increase the pH of the solution by 0.1. After the system was equilibrated, the spectral scan was performed once after 5 min. This protocol was repeated until the specified endpoint of the pH value was reached. All data were recorded with the internal Visual Basic program, HypSpec2014 program was utilised for the data analysis[5]^,[21]^,[22].

[5] = parameters: method as in ref 17 = [17]; 17 Li Z-S , Qiao R-P , Yang Z-J , et al. One-step synthesis of novel tricyclic isomeric azidonucleosides . Tetrahedron Asymmetry 2006; 17 : 1056 – 61 .; conditions: cited from earlier work
[6] = pKa determination by automatic spectrophotometric titration; assay type: physicochemical; conditions: DMSO:KCl (0.1 M) = 2:3 (V/V), 25 °C
Procedure: as §1, §2
The titration was performed in a 50 mm path length cuvette. 45 ml KCl (0.1 M) solution, 40 μL of saturated EDTA solution were added to the cuvette. The pH value of the solution was acidified to 2.0 with hydrochloric acid (1.5 M). Then 20 μL of test compound DMSO solution (30 μM/L) was added and stirred vigorously. By adding KOH solution (0.1 M) from the automatic buret, the pH value of the solution was increased by 0.1. […] Adding KOH solution (0.1 M) and repeated the automatic process until the specified endpoint of pH value was reached. All data were recorded internally by the Visual Basic program, and the test results are analysed by the HypSpec2014 program.

[7] = parameters: method as in ref 17 = [17]; 17 Li Z-S , Qiao R-P , Yang Z-J , et al. One-step synthesis of novel tricyclic isomeric azidonucleosides . Tetrahedron Asymmetry 2006; 17 : 1056 – 61 .; conditions: cited from earlier work; remark: listed apart in the source

In the case of `Cc1c(O)c(=O)ccn1C` [Deferiprone], the Logβ2 [1] is reported as 27.0^b, the Logβ3 [1] is reported as 36.4^b and the “pFe3+” value ([2]; DMSO:KCl (0.1 M) = 2:3 (V/V), calculated by HySS from pKa1, pKa2, logβ1-3) is reported as 17.4. The “pFe3+” value ([2]; data measured in 0.1 M KCl solution) was 20.1^b, the pKa2 [3] was 9.78^c and the Logβ1 ([4]; compound:iron 1.1:1) was 14.83. The Logβ2 ([4]; compound:iron 5:1) was 25.7, the Logβ3 ([4]; compound:iron 5:1) was 33.6 and the Logβ1 [5] was 15.03^c. For the same molecule, the Logβ2 [5] was 27.42^c, the Logβ3 [5] was 37.35^c and the pKa1 [6] was 3.68. The “pFe3+” value [7] was 20.7^c.
